# Results published in publication PMC7739374 (ACS chemical biology, 2020).
# Where a SMILES comes first, the peptide text is derived from it. [ ]: non-standard residue; d: D form. β3hI = CC[C@H](C)[C@H](N)CC(=O)O; β3hE = N[C@@H](CCC(=O)O)CC(=O)O; β3hA = C[C@H](N)CC(=O)O
# Columns and labels:
# [1] = system: trypsin; assay: Tryptic digestion, HPLC-based proteolytic stability assay; assay type: in vitro ADME
# [2] = as above; assay type: in vitro ADME
# [3] = system: H358 (K-Ras G12C) lung cancer cells; assay: MTT cell viability; assay type: cell-based; conditions: 72 hours
# [4] = system: proteinase K; assay type: in vitro ADME
# [5] = system: recombinant H-Ras; conditions: within range of full-length Sos; cited from earlier work
# [6] = system: Ras activation and ERK signaling; conditions: cited from earlier work
SMILES,"fold increase in half-life, tryptic digestion [1]",half-life ([2]; isolated enzyme trypsin) [min],"effect on cell viability, H358 [3]",fold increase in half-life with proteinase K [4] [fold],half-life ([2]; trypsin) [min],affinity for recombinant H-Ras [5],modulation of Ras activation and ERK signaling [6]
CC[C@H](C)[C@@H](CC(=O)N[C@@H](Cc1ccc(O)cc1)C(=O)N[C@@H](CCCNC(=N)N)C(=O)N[C@@H](CC(C)C)C(=O)N[C@@H](CCC(=O)O)CC(=O)N[C@@H](CC(C)C)C(=O)N[C@@H](CC(C)C)C(=O)N[C@@H](CCCCN)C(=O)N[C@@H](C)CC(=O)N[C@@H](CCC(=O)O)C(=O)N[C@@H](CCC(=O)O)C(=O)N[C@@H](C)C(=O)N[C@@H](CC(N)=O)C(N)=O)NC(=O)CNC(=O)[C@H](CCC(=O)O)NC(=O)[C@H](Cc1ccccc1)NC(C)=O [α3βUNCSOS] (Ac-FEG[β3hI]YRL[β3hE]LLK[β3hA]EEAN-NH2; N-terminus and C-terminus assumed),8.5 fold,816,–,–,–,–,–
CC[C@H](C)[C@@H](CC(=O)N[C@@H](Cc1ccc(O)cc1)C(=O)N[C@@H](CCCNC(=N)N)C(=O)N[C@@H](CC(C)C)C(=O)N[C@@H](CCC(=O)O)CC(=O)N[C@@H](CC(C)C)C(=O)N[C@@H](CC(C)C)C(=O)N[C@@H](CCCCN)C(=O)N[C@@H](C)CC(=O)N[C@@H](CCC(=O)O)C(=O)N[C@@H](CCC(=O)O)C(=O)N[C@@H](C)C(=O)N[C@@H](CC(N)=O)C(N)=O)NC(=O)CN1C/C=C/CCCC(=O)N[C@@H](Cc2ccccc2)C(=O)N[C@@H](CCC(=O)O)C1=O [α3βHBSSOS],~ 6 fold,1060,impacts viability of H358 cells at higher concentrations,360,–,–,–
CC[C@H](C)[C@H](NC(=O)CNC(=O)[C@H](CCC(=O)O)NC(=O)[C@H](Cc1ccccc1)NC(C)=O)C(=O)N[C@@H](Cc1ccc(O)cc1)C(=O)N[C@@H](CCCNC(=N)N)C(=O)N[C@@H](CC(C)C)C(=O)N[C@@H](CCC(=O)O)C(=O)N[C@@H](CC(C)C)C(=O)N[C@@H](CC(C)C)C(=O)N[C@@H](CCCCN)C(=O)N[C@@H](C)C(=O)N[C@@H](CCC(=O)O)C(=O)N[C@@H](CCC(=O)O)C(=O)N[C@@H](C)C(=O)N[C@@H](CC(N)=O)C(N)=O [αUNCSOS] (Ac-FEGIYRLELLKAEEAN-NH2; N-terminus and C-terminus assumed),–,–,–,–,96,–,–
CC[C@H](C)[C@H](NC(=O)CN1C/C=C/CCC(=O)N[C@@H](Cc2ccccc2)C(=O)N[C@@H](CCC(=O)O)C1=O)C(=O)N[C@@H](Cc1ccc(O)cc1)C(=O)N[C@@H](CCCNC(=N)N)C(=O)N[C@@H](CC(C)C)C(=O)N[C@@H](CCC(=O)O)C(=O)N[C@@H](CC(C)C)C(=O)N[C@@H](CC(C)C)C(=O)N[C@@H](CCCCN)C(=O)N[C@@H](C)C(=O)N[C@@H](CCC(=O)O)C(=O)N[C@@H](CCC(=O)O)C(=O)N[C@@H](C)C(=O)N[C@@H](CC(N)=O)C(N)=O [HBSSOS],–,–,–,–,186,micromolar affinity,concentration-dependent manner
